Data from the supplement of paper PMC10307832.

Tests used:
Experiment in all cases: relative viability (nuclei count vs DMSO), 5 days (fraction); higher = more cells survive
201T = test system: 201T
Summary of the method: (§1)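 Relative viability is defined as nuclei in treated wells over nuclei in vehicle wells. Duplicate plates were run and medians reported. Lung cancer cell lines in 1536-well plates were dosed by pin tool one day after seeding, with one drug or with a fixed anchor-drug dose plus five library-drug doses (not always all listed) in √10 steps, and nuclei were counted after 5 days.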

BEN = test system: BEN
Summary of the method: as §1

CAL-12T = test system: CAL-12T
Summary of the method: as §1

HCC-827 = test system: HCC-827
Summary of the method: as §1

LCLC-103H = test system: LCLC-103H
Summary of the method: as §1

LCLC-97TM1 = test system: LCLC-97TM1
Summary of the method: as §1

LXF-289 = test system: LXF-289
Summary of the method: as §1

NCI-H1395 = test system: NCI-H1395
Summary of the method: as §1

NCI-H1437 = test system: NCI-H1437
Summary of the method: as §1

NCI-H1650 = test system: NCI-H1650
Summary of the method: as §1

NCI-H1792 = test system: NCI-H1792
Summary of the method: as §1

Structure (SMILES): COc1cc2nccc(Oc3ccc(NC(=O)Nc4cc(C)on4)c(Cl)c3)c2cc1OC [Tivozanib] + CC(=O)c1c(C)c2cnc(Nc3ccc(N4CCNCC4)cn3)nc2n(C2CCCC2)c1=O [Palbociclib] (partner 0.5 µM)
- relative viability (201T; first compound 0.005 µM): 0.395
- relative viability (201T; first compound 0.01581 µM): 0.39
- relative viability (201T; first compound 0.05 µM): 0.366
- relative viability (201T; first compound 0.1581 µM): 0.373
- relative viability (201T; first compound 0.5 µM): 0.357
- relative viability (BEN; first compound 0.005 µM): 0.508
- relative viability (BEN; first compound 0.01581 µM): 0.497
- relative viability (BEN; first compound 0.05 µM): 0.453
- relative viability (BEN; first compound 0.1581 µM): 0.44
- relative viability (BEN; first compound 0.5 µM): 0.459
- relative viability (CAL-12T; first compound 0.005 µM): 0.407
- relative viability (CAL-12T; first compound 0.01581 µM): 0.433
- relative viability (CAL-12T; first compound 0.05 µM): 0.465
- relative viability (CAL-12T; first compound 0.1581 µM): 0.224
- relative viability (CAL-12T; first compound 0.5 µM): 0.402
- relative viability (HCC-827; first compound 0.005 µM): 0.498
- relative viability (HCC-827; first compound 0.01581 µM): 0.506
- relative viability (HCC-827; first compound 0.05 µM): 0.539
- relative viability (HCC-827; first compound 0.1581 µM): 0.448
- relative viability (HCC-827; first compound 0.5 µM): 0.412
- relative viability (LCLC-103H; first compound 0.005 µM): 0.452
- relative viability (LCLC-103H; first compound 0.01581 µM): 0.512
- relative viability (LCLC-103H; first compound 0.05 µM): 0.519
- relative viability (LCLC-103H; first compound 0.1581 µM): 0.551
- relative viability (LCLC-103H; first compound 0.5 µM): 0.471
- relative viability (LCLC-97TM1; first compound 0.005 µM): 0.233
- relative viability (LCLC-97TM1; first compound 0.01581 µM): 0.245
- relative viability (LCLC-97TM1; first compound 0.05 µM): 0.193
- relative viability (LCLC-97TM1; first compound 0.1581 µM): 0.268
- relative viability (LCLC-97TM1; first compound 0.5 µM): 0.214
- relative viability (LXF-289; first compound 0.005 µM): 0.575
- relative viability (LXF-289; first compound 0.01581 µM): 0.576
- relative viability (LXF-289; first compound 0.05 µM): 0.6
- relative viability (LXF-289; first compound 0.1581 µM): 0.66
- relative viability (LXF-289; first compound 0.5 µM): 0.612
- relative viability (NCI-H1395; first compound 0.005 µM): 0.581
- relative viability (NCI-H1395; first compound 0.01581 µM): 0.587
- relative viability (NCI-H1395; first compound 0.05 µM): 0.659
- relative viability (NCI-H1395; first compound 0.1581 µM): 0.55
- relative viability (NCI-H1395; first compound 0.5 µM): 0.509
- relative viability (NCI-H1437; first compound 0.005 µM): 0.364
- relative viability (NCI-H1437; first compound 0.01581 µM): 0.344
- relative viability (NCI-H1437; first compound 0.05 µM): 0.286
- relative viability (NCI-H1437; first compound 0.1581 µM): 0.368
- relative viability (NCI-H1437; first compound 0.5 µM): 0.26
- relative viability (NCI-H1650; first compound 0.005 µM): 0.328
- relative viability (NCI-H1650; first compound 0.01581 µM): 0.304
- relative viability (NCI-H1650; first compound 0.05 µM): 0.336
- relative viability (NCI-H1650; first compound 0.1581 µM): 0.389
- relative viability (NCI-H1650; first compound 0.5 µM): 0.319
- relative viability (NCI-H1792; first compound 0.005 µM): 0.686
- relative viability (NCI-H1792; first compound 0.01581 µM): 0.643
- relative viability (NCI-H1792; first compound 0.05 µM): 0.553
- relative viability (NCI-H1792; first compound 0.1581 µM): 0.698
